According to patent US4497806A, “Triorganotin compounds, antifungal and antibacterial compositions containing same, and method of using same” (priority 1983, dated 1985):

Columns and labels:
Escherichia coli = test: Antibacterial activity, agar growth inhibition; format: cell-based; conditions: for growth inhibition: Gram-negative, 24 hours at 37° C.
Procedure: (§1) The agar was also needed with a 1:100 dilution of an 18-hour old culture of the desired bacterial species in sterile distilled water. The plates were incubated for 24 hours at 37° C. with each bacterial strain. Observations of bacterial growth inhibition were made following the appropriate incubation period.
(§2) A solvent control was included in all evaluations, as were growth controls for all bacteria species.
These compounds were tested for antibacterial activity in the same manner as the triorganotin 5-nitro-2-furoates of the present invention.
(§3) All of the bacteria tested were obtained from the culture collection of the Department of Biological Sciences, St. John's University.

[1] = system: Cladosporium carpophilium (ATCC 12117); test: Antifungal activity, agar plate growth inhibition; format: cell-based, Cladosporium carpophilum; conditions: 14 days
Procedure: (§4) Dilutions of the sterile solutions were prepared and added to liquified potato dextrose agar (Difco) to yield final concentrations of 100, 10 and 1 μg/ml. The agar, containing the appropriate organotin compound, was poured into sterile petri dishes and allowed to solidify over night. The agar surface was inoculated centrally with a 2 mm^2 portion of the growth from a ten-day-old culture of each fungus of the group consisting of Aspergillus niger, Chaetomium globosum, Cladosporium carpophilum, Fusarium moniliforme, Myrotheium verrucaria, Penicillium notatum, Rhizopus stolonifer, Trichoderma viride and Trichophyton mentagrophytes, or from a two-day-old culture of Saccharomyces cerevisiae. Inoculated plates were incubated for 14 days and observations of growth inhibition were made by measuring the diameters of the colonies present on the agar surface.
(§5) A solvent was included in all evaluations, as were growth controls for all fungal species.
(§6) The following compounds were tested for comparative purposes: [drawing 6] These compounds were tested for antifungal activity in the same manner as the triorganotin 5-nitro-2-furoates of the present invention.

Staphylococcus aureus = test: Antibacterial activity, agar growth inhibition; format: cell-based; design: key to growth inhibition: -: no inhibition of growth; +: partial inhibition; 2+: complete inhibition; conditions: Gram-positive
Procedure: as §1, with “The antibacterial activity of Compounds A-E was investigated by means of incorporating the compounds into sterile tryptic soy agar (Difco) at levels of 100, 10, and 1 μg/ml. The agar” for “The agar”
as §2
Comparative compounds 1-5 above were employed for comparison purposes. These compounds were tested for antibacterial activity in the same manner as the triorganotin 5-nitro-2-furoates of the present invention.
as §3
The ability of Compound B to inhibit the growth of other Gram-positive bacteria, using the same test procedures as described for the antibacterial activity determined in Table III above, is illustrated in Table IV below.

[2] = system: Trichophyton mentagrophytes (ATCC 9129); test: Antifungal activity, agar plate growth inhibition; format: cell-based; conditions: 14 days
Procedure: as §4, §5, §6

[3] = system: Penicillium notatum (ATCC 9179); test: Antifungal activity, agar plate growth inhibition; format: cell-based; conditions: 14 days
Procedure: as §4, §5, §6

[4] = system: Trichoderma viride (ATCC 8678); test: Antifungal activity, agar plate growth inhibition; format: cell-based; conditions: 14 days
Procedure: as §4, §5, §6

[5] = system: Chaetomium globosum (ATCC 6205); test: Antifungal activity, agar plate growth inhibition; format: cell-based; conditions: 14 days
Procedure: as §4, §5, §6

[6] = system: Aspergillus niger (ATCC 12845); test: Antifungal activity, agar plate growth inhibition; format: cell-based; conditions: 14 days
Procedure: as §4, §5, §6

[7] = system: Saccharomyces cerevisiae (ATCC 9896); test: Antifungal activity, agar plate growth inhibition; format: cell-based; conditions: 14 days
Procedure: as §4, §5, §6

[8] = system: Myrothecium verrucaria (ATCC 9095); test: Antifungal activity, agar plate growth inhibition; format: cell-based; conditions: 14 days
Procedure: as §4, §5, §6

[9] = system: Fusarium moniliforme (ATCC 10052); test: Antifungal activity, agar plate growth inhibition; format: cell-based; conditions: 14 days
Procedure: as §4, §5, §6

[10] = system: Rhizopus stolonifer (ATCC 10404); test: Antifungal activity, agar plate growth inhibition; format: cell-based; conditions: 14 days
Procedure: as §4, §5, §6

| Compound | growth inhibition ([1]; 1 μg/ml) | growth inhibition ([1]; 10 μg/ml) | growth inhibition ([1]; 100 μg/ml) | growth inhibition ([2]; 1 μg/ml) | growth inhibition ([2]; 10 μg/ml) | growth inhibition ([2]; 100 μg/ml) | growth inhibition ([3]; 1 μg/ml) | growth inhibition ([3]; 10 μg/ml) | growth inhibition ([3]; 100 μg/ml) | growth inhibition ([4]; 1 μg/ml) | growth inhibition ([4]; 10 μg/ml) | growth inhibition ([4]; 100 μg/ml) | growth inhibition ([5]; 1 μg/ml) | growth inhibition ([5]; 10 μg/ml) | growth inhibition ([5]; 100 μg/ml) | growth inhibition ([6]; 1 μg/ml) | growth inhibition ([6]; 10 μg/ml) | growth inhibition ([6]; 100 μg/ml) | growth inhibition ([7]; 1 μg/ml) | growth inhibition ([7]; 10 μg/ml) | also measured |
| --- | --- | --- | --- | --- | --- | --- | --- | --- | --- | --- | --- | --- | --- | --- | --- | --- | --- | --- | --- | --- | --- |
| N#CN=C(Nc1ccccc1)[O][Sn]([c]1ccccc1)([c]1ccccc1)[c]1ccccc1 [Comparative Compound 3, N--phenyl, N'--cyano-O--(triphenylstannyl)-isourea, reference compound] | - | + | + | + | + | 2+ | - | + | + | - | - | + | - | + | + | - | + | + | - | - | growth inhibition (in words) (Escherichia coli; 100 μg/ml): inactive; growth inhibition (Escherichia coli; 1 μg/ml): -; growth inhibition (Escherichia coli; 10 μg/ml): -; growth inhibition (Escherichia coli; 100 μg/ml): -; minimum concentration for complete growth inhibition (Staphylococcus aureus): 100 µg/mL; growth inhibition (Staphylococcus aureus; 1 μg/ml, 24 hours at 37° C.): -; growth inhibition ([7]; 100 μg/ml): 2+; growth inhibition ([8]; 1 μg/ml): +; growth inhibition ([8]; 10 μg/ml): +; growth inhibition ([8]; 100 μg/ml): +; growth inhibition ([9]; 1 μg/ml): -; growth inhibition ([9]; 10 μg/ml): +; growth inhibition ([9]; 100 μg/ml): +; growth inhibition ([10]; 1 μg/ml): -; growth inhibition ([10]; 10 μg/ml): +; growth inhibition ([10]; 100 μg/ml): + |
| N#CN=C(Nc1ccccc1)[S][Sn]([c]1ccccc1)([c]1ccccc1)[c]1ccccc1 [compound 2, N--phenyl, N'--cyano-S--(triphenylstannyl)-isothiourea, reference compound] | - | - | - | - | + | + | - | + | + | - | - | + | - | + | + | - | + | 2+ | - | - | growth inhibition (in words) (Escherichia coli; 100 μg/ml): partially; growth inhibition (Escherichia coli; 1 μg/ml): -; growth inhibition (Escherichia coli; 10 μg/ml): -; growth inhibition ([7]; 100 μg/ml): -; growth inhibition ([8]; 1 μg/ml): -; growth inhibition ([8]; 10 μg/ml): +; growth inhibition ([8]; 100 μg/ml): +; growth inhibition ([9]; 1 μg/ml): -; growth inhibition ([9]; 10 μg/ml): +; growth inhibition ([9]; 100 μg/ml): +; growth inhibition ([10]; 1 μg/ml): -; growth inhibition ([10]; 10 μg/ml): +; growth inhibition ([10]; 100 μg/ml): 2+ |
| N--nitrophenyl, N--(triphenylstannyl) cyanamide [compound 1, reference compound] | + | + | + | + | + | 2+ | + | + | + | - | + | + | + | + | 2+ | + | + | + | - | - | growth inhibition ([7]; 100 μg/ml): +; growth inhibition ([8]; 1 μg/ml): +; growth inhibition ([8]; 10 μg/ml): +; growth inhibition ([8]; 100 μg/ml): +; growth inhibition ([9]; 1 μg/ml): +; growth inhibition ([9]; 10 μg/ml): +; growth inhibition ([9]; 100 μg/ml): +; growth inhibition ([10]; 1 μg/ml): +; growth inhibition ([10]; 10 μg/ml): +; growth inhibition ([10]; 100 μg/ml): + |
